The results in this text go back to patent publication US12606554B2, “Compounds and pharmaceutical compositions thereof for the treatment of diseases” (ONCO3R Therapeutics BV, priority 2019, dated 2026).

What is called EC50 is the concentration at which the effect is half-maximal. High values mean a less potent agent, low ones a more potent agent.

Assay [1] has as its system LPS triggered IL-10 secretion in monocytes. Put plainly: Monocytes assay: LPS-triggered IL-10 (ELISA). To be noted: LPS 200 ng/mL, supernatant after 4 h, maximal fold change vs LPS only. It is filed as cell-based, human. The protocol: (§1) SIK inhibition inhibits TNFα and increases IL-10 release in LPS triggered monocyte-derived macrophages (MdM) and dendritic cells (MdDCs) (Clark et al. 2012; Sundberg et al. 2014; Ozanne et al. 2015). This assay evaluates illustrative compounds of the invention for their inhibition of LPS-induced TNFα and LPS triggered IL-10 secretion in monocytes.
(§2) PBMCs are isolated from human blood samples (buffycoats). The buffy coat is aseptically transferred into a 50 mL Falcon tube, and diluted ½ in PBS. Falcon tubes are filled with 20 mL Lymphoprep™, on top of which 25 mL of the buffy coat is carefully added, tubes are centrifuged for 35 min at 400 g in temperature controlled centrifuge, without brake, at 25° C. PBMCs are aspirated from the white interface layer between sample and Lymphoprep™. PBMCs are washed five times in PBS. Cells are resuspended in RPMI 1640 complete medium supplemented with 10% FBS, 1% P/S, and cell density is determined using a hematologic analyzer (Sysmex XS-500i). […]
(§3) The columns are removed from the magnets, and 5 mL of Miltenyi buffer are added to the column to flush out the CD14+ fraction by pushing the plunger into the column. […] The obtained cell pellet is resuspended in 10 mL RPMI w/o FBS, and cell density is determined using a hematologic analyser (Sysmex XS-500i). […]
Background: ELISA stands for enzyme-linked immunosorbent assay.

The test system of assay [2] is LPS-induced TNFα in monocytes. Put plainly: Monocytes assay: LPS-triggered TNFα (ELISA). The settings on record: Homo sapiens, Monocyte, LPS 200 ng/mL, supernatant after 4 h. It is filed as cell-based. The protocol: as §1
PBMCs are isolated from human blood samples (buffycoats). The buffy coat is aseptically transferred into a 50 mL Falcon tube, and diluted ½ in PBS. Falcon tubes are filled with 20 mL Lymphoprep™, on top of which 25 mL of the buffy coat is carefully added, tubes are centrifuged for 35 min at 400 g in temperature controlled centrifuge, without brake, at 25° C. PBMCs are aspirated from the white interface layer between sample and Lymphoprep™. PBMCs are washed five times in PBS. Cells are resuspended in RPMI 1640 complete medium supplemented with 10% FBS, 1% P/S, and cell density is determined using a hematologic analyzer (Sysmex XS-500i).
PBMCs are centrifuged at 300×g for 10 min and resuspended at a density of 1.0*10^7 cells/80 μL Miltenyi buffer (PBS, pH 7.4, 1% FBS, 2 mM EDTA).
Starting from this point of the protocol all steps are performed on ice. 20 μL of CD14+ micro-beads are added per 1.0*10^7 cells, the tube is mixed and incubated for 15 min in the fridge at 4° C. Cell suspension volume is adjusted to total volume of 100 mL using Miltenyi buffer, mixed gently and subsequently centrifuged for 10 min at 300×g. Supernatant is discarded and cell pellet is resuspended in 12 mL of Miltenyi buffer.
Four LS columns are placed in the MACS Separator (magnet) from Miltenyi Biotec, and are prewet by rinsing with 3 mL of MACS buffer per column. Three mL of cell suspension is added onto the column (max 1*10^8 of labelled cells/column), and columns are subsequently washed 3 times with 3 mL of Miltenyi buffer.
The columns are removed from the magnets, and 5 mL of Miltenyi buffer are added to the column to flush out the CD14+ fraction by pushing the plunger into the column. The flushed fractions are collected in a fresh 50 mL Falcon and volume is adjusted to 30 mL using Miltenyi buffer, cells are centrifuged for 10 min at 300×g. The obtained cell pellet is resuspended in 10 mL RPMI w/o FBS, and cell density is determined using a hematologic analyser (Sysmex XS-500i). 100 000 cells are seeded in 80 μL per well of a 96-well plate in RPMI 1640 medium supplemented with 10% FBS, 1% P/S.
A compound dilution plate is made in 100% DMSO by 3-fold dilution of 10 mM stock solution. An intermediate dilution plate (10× final concentration) is made by diluting the compound dilution plate 50-fold in RPMI medium.
10 μL of the 10× final concentration compound is added to the cells and incubated for 1 h at 37° C. before addition of trigger. […]

Assay [3] deals with LPS triggered IL-10 secretion in monocyte-derived macrophages (MdM). Put plainly: MdM assay: LPS-triggered IL-10 (ELISA). It is filed as cell-based, human. To be noted: LPS 200 ng/mL, maximal fold change vs LPS only. The protocol:
SIK inhibition inhibits TNFα and increases IL-10 release in LPS triggered monocyte-derived macrophages (MdM) and dendritic cells (MdDCs) (Clark et al. 2012; Sundberg et al. 2014; Ozanne et al. 2015). This assay evaluates illustrative compounds of the invention for their inhibition of LPS-induced TNFα and LPS triggered IL-10 secretion in monocyte-derived macrophages.
as §2, §3

On to `COc1cc(-c2cnn3cc(OC(C)(C)CO)ccc23)cc(OC(F)F)c1C(=O)N[C@@H]1C[C@@H]1F` [Cpd 2, 2-(difluoromethoxy)-N-[(1R,2S)-2-fluorocyclopropyl]-4-[6-(2-hydroxy-1,1-dimethyl-ethoxy)pyrazolo[1,5-a]pyridin-3-yl]-6-methoxy-benzamide], for which the “IL-10 FCmax median” value in assay [1] is “+ (≤1.5)”. The same compound registered an EC50 in assay [2] of 100 to 1000 nM.
In assay [2], `COc1cc(-c2cnn3cc(OC(C)(C)CN4CCOCC4)ccc23)cc(OC(F)F)c1C(=O)N[C@@H]1C[C@@H]1F` [Cpd 3, 2-(difluoromethoxy)-4-[6-(1,1-dimethyl-2-morpholino-ethoxy)pyrazolo[1,5-a]pyridin-3-yl]-N-[(1R,2S)-2-fluorocyclopropyl]-6-methoxy-benzamide] came in with an EC50 of 100 to 1000 nM.
In the case of `COc1cc(-c2cnn3cc(OCCN4CCOCC4)ccc23)cc2c1C(=O)N(CC(F)(F)F)CC2` [Cpd 1, 8-methoxy-6-[6-(2-morpholinoethoxy)pyrazolo[1,5-a]pyridin-3-yl]-2-(2,2,2-trifluoroethyl)-3,4-dihydroisoquinolin-1-one], the results for the “IL-10 FCmax median” value in assay [1] and in assay [3] were “+++ (>4.5)” and “++ (>1.5-4.5)”, respectively. The compound further registered an EC50 in assay [2] of 100 to 1000 nM.
